Experimental data: patent publication US8642572B2, “Cytidine derivative-containing antitumor agent for continuous intravenous administration” (Taiho Pharmaceutical Co., Ltd., priority 2007, dated 2014)

Columns and labels:
[1] = test system: patients of solid cancers; experiment: Phase I-equivalent test in cancer patients, once every three weeks: 24-hour continuous vs rapid intravenous administration, neurotoxicity occurrence and therapeutic effect (RECIST); format: in vivo, human
Description: A group of cancer patients was repeatedly subjected to a course including a 24-hour continuous intravenous administration once every three weeks at a dose of 2.80 to 8.56 mg/m^2 as reduced to ECyd for each administration. Another group of cancer patients was repeatedly subjected to a course including a rapid intravenous administration once every three weeks at a dose of 2.81 to 9.46 mg/m^2 as reduced to ECyd. In both cases, the neurotoxicity occurrence and the therapeutic effect by ECyd were investigated.
(§1) The above test is equivalent to the phase I clinical trial, which is performed mainly for evaluating safety of the tested drug and determining the recommended dose (RD) of the drug, which ensures safety of the drug without adverse effects in the phase II clinical trial carried out with respect to the target cancer. The test is carried out for patients of solid cancers (e.g., gastrointestinal cancers, head and neck cancer, and breast cancer) which cannot be cured by a standard therapeutic method or to which no effective method is applicable. When the test is performed, if possible, the therapeutic effect on the target tumor is assessed. In the following examples, the therapeutic effect on the target tumor was assessed in accordance with the RECIST method (see Journal of the National Cancer Institute, 2000, Vol. 92, No. 3, p. 205 to 216). The effect of ECyd on shrinkage of the tumor was confirmed generally from a target lesion (a lesion having a size equal to or greater than the measurable size depending on the slice width obtained through CT or similar means) and the non-target lesions (all lesions other than the target lesion). […] PD (progressive disease) refers to a state in which the sum of the longer diameters of target lesions was increased by 20% or more as compared with the minimum sum of the longer diameters recorded after start of the test, or a state in which clear exacerbation in the non-target lesions or a new lesion was observed. SD (stable disease) refers to a state in which the degree of tumor shrinkage cannot be evaluated as PR and which cannot be evaluated as PD, and in which the tumor progress has stopped and no exacerbation was observed. MR (minor response) refers to a case in which a certain tumor shrinkage degree of about 15% was maintained (although it was less than 30%), or in which a therapeutic effect corresponding to PR is temporarily observed.

[2] = test system: patients of solid cancers; experiment: Test in cancer patients, 4-hour continuous vs rapid intravenous administration, neurotoxicity occurrence and therapeutic effect; format: in vivo, human
Description: as §1
A course including a 4-hour continuous intravenous administration once every three weeks out of a continuous four-week period at a dose of 1.30 mg/m^2 as reduced to ECyd for each administration was repeatedly performed. Also, a course including a rapid intravenous administration once every three weeks out of a continuous four-week period at a dose of 1.32 mg/m^2 as reduced to ECyd was repeatedly performed. In both cases, the neurotoxicity occurrence and the therapeutic effect by ECyd were investigated. In Example 2, selection of the patients and the method and ratings of evaluation were the same as employed in Example 1.

[3] = test system: neural-crest-derived rat adrenal medulla chromaffin cells (PC12 strain); experiment: Effect of ECyd contact schedule on growth inhibition of PC12 cells (Crystal Violet staining, constant AUC); format: cell-based; conditions: for growth of PC12 cells after ECyd contact: constant AUC
Description: The effects of the ECyd contact schedule on growth inhibition of neural-crest-derived rat adrenal medulla chromaffin cells (PC12 strain) were investigated.
(§2) The experiment of Example 3 was performed at a constant AUC (product of contact time and ECyd concentration). Specifically, in each tested regimen, AUC was maintained at such a level that the ECyd concentration was adjusted to provide IC80 (0.08 μM) as a result of contact between ECyd and the PC12 cells for 100 hours. In each tested regimen, PC12 cells were seeded on a plate and treated with ECyd. Subsequently, the cell culture liquid was exchanged. The profile of cell growth thereafter was obtained through staining with Crystal Violet.

[4] = test system: human lung tumor cells (A549 strain); experiment: Effect of ECyd contact schedule on growth inhibition of A549 cells (Crystal Violet staining, constant AUC); format: cell-based
Description: The effects of the ECyd contact schedule on growth inhibition of human lung tumor cells (A549 strain) were investigated.
as §2, with “4” for “3”, “A549” for “PC12”

cancer patients = conditions: rapid intravenous injection, once every three weeks or once a week for three weeks and one week rest; cited from earlier work
[5] = rapid intravenous administration once every three weeks, 6.31 mg/m^2

SMILES: C#C[C@@]1(O)[C@@H](CO)O[C@@H](n2ccc(N)nc2=O)[C@@H]1O [ECyd, 1-(3-C-Ethynyl-β-D-ribopentofuranosyl)cytosine]
- peripheral neurotoxicity ([1]; 24-hour continuous intravenous administration once every three weeks, 2.80 mg/m^2 to 5.48 mg/m^2): no peripheral neurotoxicity was observed
- therapeutic effect ([1]; rapid intravenous administration once every three weeks, 2.81 mg/m^2): no therapeutic effect was observed
- cases exhibiting peripheral neurotoxicity ([1]; rapid intravenous administration once every three weeks, 2.81 mg/m^2, two of the three cases): 66%
- cases exhibiting peripheral neurotoxicity [1, 5]: two of the three cases
- therapeutic efficacy (SD or higher) [1, 5]: two of the three cases
- therapeutic efficacy (SD or higher) ([2]; 4-hour continuous intravenous administration, 1.30 mg/m^2): 66%
- cases exhibiting peripheral neurotoxicity ([2]; 4-hour continuous intravenous administration, 1.30 mg/m^2, one of the three cases): 33%
- therapeutic efficacy (SD or higher) ([2]; rapid intravenous administration, 1.32 mg/m^2): no therapeutic efficacy (SD or higher) was observed
- cases exhibiting peripheral neurotoxicity ([2]; rapid intravenous administration, 1.32 mg/m^2, one of the three cases): 33%
- IC80 ([3]; Rattus norvegicus, PC-12, PC12 cells, contact for 100 hours): 0.08 µM
- growth of PC12 cells after ECyd contact ([3]; contact time of 0.5 hours, day 6): virtually unrestored
- growth of PC12 cells after ECyd contact ([3]; contact times of 25 and 100 hours): restored
- IC80 ([4]; Homo sapiens, A549 cells, contact for 100 hours): 0.08 µM
- growth of A549 cells after ECyd contact ([4]; contact times of 0.5 to 100 hours, constant AUC, day 6): virtually unrestored
- dose-limiting toxicity (cancer patients): peripheral neurotoxicity was observed as a dose-limiting toxicity
